Experimental data from patent US20080241084A1, “Compositions and methods for inhibiting melanogenesis” (Shaklee Corporation, priority 2007, published 2008).
Values joined by “and” are separate entries in the source; they are usually repeats but may differ in a detail not shown here. Identical values can stand only once.

Legend:
[1] = system: EpiDerm tissue (normal, human-derived epidermal keratinocytes); experiment: MTT tissue viability assay on EpiDerm tissue; type: cell-based; conditions: 48 hours of exposure, negative control = 100%
Procedure: The effect of the tested articles on cell viability was determined with an MTT assay. 10 μL and 25 μL portions of each of GS, SB, A, FS, DG and Mix were applied to separate duplicate samples of EpiDerm tissue (e.g., GS was applied to four tissue samples, with two samples receiving 10 μL and two samples receiving 25 μL of GS). 25 μL of the negative control was applied to each of three separate samples of EpiDerm tissue. EpiDerm tissue is an epidermal equivalent system from the MatTek Corporation of Ashland, Mass., consisting of normal, human-derived epidermal keratinocytes (NHEK) which have been cultured to form a multilayered, highly differentiated model of the human epidermis. After 48 hours of exposure to the test article or negative control each sample was rinsed with phosphate buffered saline (PBS) and the viability of the tissue (referenced to the negative control) was determined using the MTT tissue viability assay.
The MTT assay determines cell viability by measuring the amount of 3-(4,5-dimethylthiazol-2-yl)-2,5-diphenyltetrazolium bromide (MTT) dye taken up by the cell cultures. Viable cells take up this dye and convert it to insoluble formazin crystals that resides in the mitochondria of the cells until extracted with alcohol. […] MTT was measured spectrophotometrically and the optical density of each sample was determined. […]

[2] = system: MelanoDerm tissue (MEL-300-B); experiment: Macroscopic skin lightening of fixed MelanoDerm tissue; type: cell-based, human; conditions: fixed tissues
Procedure: (§1) The effects of the test articles on skin color, melanin production, melanocyte morphology and dendricity and tissue morphology were assessed using MelanoDerm tissue (MEL-300-B). MelanoDerm tissue is another epidermal equivalent system from the MatTek Corporation of Ashland, Mass. This system consists of normal, human-derived epidermal keratinocytes (NHEK) and melanocytes (NHM) which have been cultured to form a multilayered, highly differentiated model of the human epidermis. The NHM within co-cultures undergo spontaneous melanogenesis leading to tissue pigmentation. The MEL-300-B system contains melanocytes derived from a donor.
On Day zero of the study, prior to exposure to any test articles, MelanoDerm tissue samples were placed into wells on plates containing maintenance medium that had been pre-warmed to about 37° C. (Long life maintenance medium, EPI-100-LLMM). The Melanoderm tissue samples were then incubated for about an hour in a humidified incubator maintained at a temperature of about 37° C. in an atmosphere of about 5% CO2. Following incubation, the maintenance medium was removed by aspiration. A cell culture stand was then placed in each well on the plate containing a MelanoDerm tissue sample. About 5 mL of fresh maintenance medium pre-warmed to about 37° C. was then added to each well having a MelanoDerm tissue sample. […]

[3] = system: MelanoDerm tissue (MEL-300-B); experiment: Melanin assay on MelanoDerm tissue (MEL-300-B); type: cell-based, human; parameters: % melanin content relative to the Negative Control / % melanin content relative to the Positive Control: concentration or dose not given beside the values; conditions: for Melanin content of the two tested samples for each test article: 25 μL applied Days 0, 1, 3, 6, 8
Procedure: as §1
On Day zero of the study, prior to exposure to any test articles, MelanoDerm tissue samples were placed into wells on plates containing maintenance medium that had been pre-warmed to about 37° C. (Long life maintenance medium, EPI-100-LLMM). The Melanoderm tissue samples were then incubated for about an hour in a humidified incubator maintained at a temperature of about 37° C. in an atmosphere of about 5% CO2. Following incubation, the maintenance medium was removed by aspiration. A cell culture stand was then placed in each well on the plate containing a MelanoDerm tissue sample. About 5 mL of fresh maintenance medium pre-warmed to about 37° C. was then added to each well having a MelanoDerm tissue sample. Then a cell culture insert was placed on top of each cell culture stand. 25 μL portions of each of GS, SB, A, FS, DG, Mix, negative control, and positive control were applied by pipette to six separate MelanoDerm tissue samples for each test article being tested (e.g., GS was applied to six tissue samples in six different wells). 25 μL portions of each of the test articles and controls were also applied to the same MelanoDerm tissue samples on Days, 1, 3, 6, and 8 of the study for each sample remaining (some samples were used for testing). Throughout the study, the maintenance medium was changed every two days to maintain the MelanoDerm tissue samples.
On each of Days 3, 7, 10, and 14, one tissue sample for each test article and control was fixed with formalin, photographed to document macroscopic darkening, microscopically observed to examine melanocyte morphology and dendricity, then processed for histology. On Days 10 and 14, two tissue samples for each test article and control were frozen and later assayed for melanin content.
To assay the tissues for melanin content, the frozen tissues were thawed and placed in Dulbecco's phosphate buffered saline (D-PBS) to remove excess phenol red from the maintenance medium. The tissues were removed from the D-PBS and each tissue was blotted dry and placed in a separate 1.7 ml microfuge tube. To each microfuge tube 250 μl of a tissue and gel solubilizer was added (Solvable™, 0.5 M—Packard BioScience Co. Catalogue No. 6NE9 100 (NEF910)). Dilutions for creating a standard curve were also prepared containing from 0-250 μg of melanin (Sigma cat. M 8631) in a total of 250 μl Solvable™. The tissues were incubated in their tubes overnight at about 60° C. overnight along with the dilutions. The tissue samples were then vortexed. Then the tissue samples were centrifuged at 13,000 rpm for 5 minutes to pellet. The supernatant from the tissue samples was collected. 250 μl of the supernatant from each tissue sample as well as the dilutions were then added to separate wells of a microwell plate. The plate was read at 490 nm. The optical densities of the dilutions were used to prepare a standard curve against which the optical densities of the tissue sample supernatants could be compared to determine the melanin content of the tissue samples. […]

Row | Structure (SMILES) | % Viability of tissue sample exposed to test article ([1]; 10 mL (so in the source) applied) [%] | % Viability of tissue sample exposed to test article ([1]; 25 mL (so in the source) applied) [%] | macroscopic lightening compared with the negative control ([2]; Days 3, 7, 10, and 14) | % melanin content relative to the Negative Control ([3]; Day 10) [%] | % melanin content relative to the Positive Control ([3]; Day 10) [%] | Average melanin content ([3]; Day 10) [μg/tissue] | Melanin content of the two tested samples for each test article ([3]; Day 10) | % melanin content relative to the Negative Control ([3]; Day 14) [%] | % melanin content relative to the Positive Control ([3]; Day 14) [%] | Average melanin content ([3]; Day 14) [μg/tissue] | Melanin content of the two tested samples for each test article ([3]; Day 14) | macroscopic lightening compared with the negative control ([2]; Days 3, 7, and 10) | melanin content compared with the negative control (in words) ([3]; Day 10 and Day 14)
1 | CC1(C)[C@@H](O[C@H]2O[C@H](C(=O)[O-])[C@@H](O)[C@H](O)[C@H]2O[C@@H]2O[C@H](C(=O)[O-])[C@@H](O)[C@H](O)[C@H]2O)CC[C@]2(C)[C@H]3C(=O)C=C4[C@@H]5C[C@@](C)(C(=O)O)CC[C@]5(C)CC[C@@]4(C)[C@]3(C)CC[C@@H]12.[K+].[K+] [DG, dipotassium glycyrrhizate] | 94.62 | 94.46 | lightening effect | 100.6 | 109.5 | 24.8 | 27.3 μg/tissue and 22.3 μg/tissue | 85.8 | 118.7 | 31.8 | 26.0 μg/tissue and 37.6 μg/tissue | – | –
2 | O=c1cc(CO)occ1O [Positive Control, kojic acid] | – | – | – | 91.9 | 100.0 | 22.7 | 25.0 μg/tissue and 20.3 μg/tissue | 72.3 | 100.0 | 26.8 | 26.6 μg/tissue and 27.0 μg/tissue | lighter than the negative control | lower melanin content than the negative control
